Data published in US4190675A (priority 1976, dated 1980).
Converted amounts (≈) assume the structure as drawn. “Also recorded” adds a separate entry of the source. Read-outs that look alike come from different tables or passages of the source.

Assays:
rats [1] = test: Turpentine-induced pleuritis in rats (Hurley); assay type: in vivo; conditions: for Exudate / Inhibition: P <0.01
[2] = test system: isolated Guinea-pig trachea; test: Relaxation of the isolated Guinea-pig trachea (Costantine); assay type: cell-based; conditions: for activation at 125 µg/mL: 125 μg/ml; for activation at 125 µg/mL / activation at 500 µg/mL / activation at 2000 µg/mL: average of 4 preparations; for activation at 500 µg/mL: 500 μg/ml; for activation at 2000 µg/mL: 2,000 μg/ml; for relaxation of the smooth tracheal muscles, intensity compared with Fraction 2 and sobrerol (in words): in vitro, isolated Guinea-pig trachea; for bronchodilating activity, grade (in words): overall, in vitro and in vivo
rabbits [3] = test: Inhibition of histamine-induced bronchospasm by intravenous perfusion in rabbits; assay type: in vivo; conditions: for Percentage of inhibition of the histamine-induced bronchospasm: histamine 100 micrograms/kg i.v., average of 4 animals
rats [4] = test: Carrageenin-induced paw oedema in rats (Winter); assay type: in vivo, albino rats, COBS (Charles River) stock; conditions: for % inhibition of plantar oedema: after 4 hours, 6 animals; for anti-inflammatory action, grade (in words): overall summary
red blood cells of rats = test: Protection of red blood cells from haemolysis induced by Tween 80, in vitro; assay type: cell-based; conditions: for EC50: Rattus norvegicus, Erythrocyte, Tween 80
Excerpt: (fiducial limits 95% : 518.0-760.11).

thrombocyte aggregation = test: Inhibition of thrombocyte aggregation from ADP in vitro (Born and Cross); assay type: cell-based; conditions: for inhibition of thrombocyte aggregation compared with Fraction 2 and sobrerol (in words): 160 to 1,280 micrograms/ml, ADP, in vitro; for inhibition at 160 µg/mL: final concentration 160 μg/ml; for inhibition at 160 µg/mL / inhibition at 320 µg/mL / inhibition at 640 µg/mL / inhibition at 1280 µg/mL: average of repeated tests; for inhibition at 320 µg/mL: final concentration 320 μg/ml; for inhibition at 640 µg/mL: final concentration 640 μg/ml; for inhibition at 1280 µg/mL: final concentration 1280 μg/ml
Staphylococcus aureus = test: Antibacterial activity (MIC), Staphylococcus aureus; assay type: cell-based; conditions: for antibacterial activity, grade (in words): Gram-positive germs / overall; for antibacterial activity compared with Fraction 2 and sobrerol (in words): Staphylococcus aureus and Escherichia coli; for MIC: read-out: Minimum Inhibiting Concentration (MIC)
Escherichia coli = test: Antibacterial activity (MIC), Escherichia coli; assay type: cell-based; conditions: for MIC: read-out: Minimum Inhibiting Concentration (MIC); for antibacterial activity, grade (in words): Gram-negative germs
[5] = Acute toxicity in rats (LD50, Litchfield and Wilcoxon); conditions: rat, in vivo, iv, intravenously
[6] = Acute toxicity in rabbits (LD50, Litchfield and Wilcoxon); assay type: in vivo; conditions: rabbit, in vivo, fiducial limits 95%
rabbits [7] = test: as above; assay type: in vivo
[8] = test system: isolated Guinea-pig trachea; test: Inhibition of histamine-induced contractions of the isolated Guinea-pig trachea; assay type: cell-based; conditions: histamine 10^-5 M, average
Excerpt: In addition, at concentrations in the range of from 10^-3 M to 5.10^-3 M, it inhibits the histamine-induced contractions of the isolated Guinea-pig trachea (Histamine 10^-5 M, see TABLE 3).

dogs = test: Reduction of lung resistance in anesthetized dogs (Diamond); assay type: in vivo; conditions: intravenous; for Percentage reduction of the Lung Resistance: average for 4 animals
mice = conditions: for Gleason classification: mice
in vivo = conditions: mouse, LD50, mice, fiducial limits 95%
[9] = Cavia porcellus, read-out: Percentage of relaxation of the isolated Guinea-pig trachea
[10] = intravenous perfusion 15 minutes
[11] = intravenous perfusion 30 minutes
[12] = intravenous perfusion 60 minutes
[13] = perfused intravenously 2.5 mls per kg b.w. per minute
[14] = 30 mg/kg b.w. intraperitoneally
[15] = read-out: Thrombocyte aggregation % INHIBITION

Compound CC(=O)Oc1ccccc1C(=O)O [Aspirin, aspirin, reference compound] has an Exudate (rats [1]; 100 mgs/kg intraperitoneal) of 1.30 mls and an Inhibition (rats [1]; 100 mgs/kg intraperitoneal) of 34%.
CC1(C)C2CC=C(C=O)C1C2 (centres unmarked) [Myrtenal, myrtenal] showed an activation at 125 µg/mL [2, 9] of 7.5%, an activation at 500 µg/mL [2, 9] of 47.5% and an activation at 2000 µg/mL [2, 9] of 62.5%. The “relaxation of the smooth tracheal muscles, intensity compared with Fraction 2 and sobrerol (in words)” value [2] was “statistically higher than that of the Fraction 2 and that of sobrerol”, the “bronchodilating activity, grade (in words)” value (shortened to “bronchodilating activity”) [2] was “fair bronchodilating activity” and the “Percentage of inhibition of the histamine-induced bronchospasm” value (rabbits [3]; [10]) was 25.4%. For the same compound, the “Percentage of inhibition of the histamine-induced bronchospasm” value (rabbits [3]; [11]) was 20.4%, the “Percentage of inhibition of the histamine-induced bronchospasm” value (rabbits [3]; [12]) was 28.8% and the “inhibition of histamine-induced bronchospasm compared with Fraction 2 and sobrerol (in words)” value (rabbits [3]; [13]) was “statistically higher than that of sobrerol and slightly lower than that of Fraction 2”. For the same compound, the “% inhibition of plantar oedema” value (rats [4]; [14]) was 30%, the “anti-inflammatory action, grade (in words)” value (rats [4]) was “anti-inflammatory action of poor magnitude” and the “inhibition of carrageenin paw oedema compared with Fraction 2 and sobrerol (in words)” value (rats [4]; rats, 30 mg/kg b.w. intraperitoneally) was “more intense than that of Fraction 2 and also than that of sobrerol”. For the same compound, the EC50 (red blood cells of rats; 80 to 500 micrograms/ml, fiducial limits 95%=112.3-189.9, read-out: Effective Concentration 50%, protection from haemolysis) was 157 µg/mL (≈ 1.05 mM), the “inhibition of thrombocyte aggregation compared with Fraction 2 and sobrerol (in words)” value (thrombocyte aggregation) was “higher than those of Fraction 2 and sobrerol” and the inhibition at 160 µg/mL (thrombocyte aggregation) was 0%. It also gave an inhibition at 320 µg/mL (thrombocyte aggregation) of 12%, an inhibition at 640 µg/mL (thrombocyte aggregation) of 20% and an inhibition at 1280 µg/mL (thrombocyte aggregation) of 75%. For the same compound, the “antibacterial activity, grade (in words)” value (Staphylococcus aureus) was “pronounced antibacterial activity on Gram-positive germs”, the “antibacterial activity, grade (in words)” value (Staphylococcus aureus; listed as myrtenal) was “marked antibacterial action” and the “antibacterial activity compared with Fraction 2 and sobrerol (in words)” value (Staphylococcus aureus) was “more active both than Fraction 2 and sobrerol”. The MIC (Staphylococcus aureus; Staphylococcus aureus) was 200 µg/mL (≈ 1.33 mM), the MIC (Escherichia coli; Escherichia coli) was 800 µg/mL (≈ 5.33 mM) and the “antibacterial activity, grade (in words)” value (Escherichia coli) was “less intense on Gram-negative ones”.
With C=C1C(O)CC2CC1C2(C)C (centres unmarked) [Pinocarveol, pinocarveol] the LD50 [5] was 140 mg/kg, the “relaxation of the smooth tracheal muscles, intensity compared with Fraction 2 and sobrerol (in words)” value [2] was “statistically higher than that of sobrerol and which can be compared to that of Fraction 2” and the “bronchodilating activity” value [2] was “fair bronchodilating action; also recorded: poor bronchodilating action”. For the same compound, the “inhibition of histamine-induced bronchospasm compared with Fraction 2 and sobrerol (in words)” value (rabbits [3]; perfused intravenously 2.5 milligrams per kilogram and per minute) was “statistically higher than those of FRACTION 2 and of sobrerol”, the “anti-inflammatory action, grade (in words)” value (rats [4]) was “pronounced anti-inflammatory action” and the “inhibition of carrageenin paw oedema compared with Fraction 2 and sobrerol (in words)” value (rats [4]; rats, 30 mg/kg intravenously) was “more intense than those of Fraction 2 and of sobrerol”. The EC50 (red blood cells of rats; 20 to 200 micrograms/ml, fiducial limits 95%=111.5-153.04, read-out: Effective Concentration 50% (EC 50), protection from haemolysis) was 132 µg/mL (≈ 0.869 mM), the “antihaemolytic activity, grade (in words)” value (red blood cells of rats; overall summary) was “pronounced antihaemolytic activity” and the “inhibition of thrombocyte aggregation compared with Fraction 2 and sobrerol (in words)” value (thrombocyte aggregation) was “exceeds that of the terpenes of the Fraction 2 and that of sobrerol”. The “antiaggregative action, grade (in words)” value (thrombocyte aggregation; overall summary) was “conspicuous antiaggregative action”, the “antibacterial activity, grade (in words)” value (Staphylococcus aureus) was “poor antibacterial activity; also recorded: poor antibacterial action” and the “antibacterial activity compared with Fraction 2 and sobrerol (in words)” value (Staphylococcus aureus) was “more active than sobrerol and as active as Fraction 2”. For the same compound, the MIC (Staphylococcus aureus; Staphylococcus aureus) was 800 µg/mL (≈ 5.25 mM), the MIC (Escherichia coli; Escherichia coli) was 800 µg/mL (≈ 5.25 mM) and the “antibacterial activity, grade (in words)” value (Escherichia coli) was “poor antibacterial activity”.
CC1=CCC(C(C)(C)O)CC1O (centres unmarked) [Sobrerol, sobrerol, reference compound] gave a percent relaxation of trachea at 125 µg/mL [2, 9] of 1.87%, a percent relaxation of trachea at 500 µg/mL [2, 9] of 5.62% and a percent relaxation of trachea at 2000 µg/mL [2, 9] of 20.8%. The “Percentage of inhibition of the histamine-induced bronchospasm” value (rabbits [3]; [10]) was 2.15%, the “Percentage of inhibition of the histamine-induced bronchospasm” value (rabbits [3]; [11]) was 1.15% and the “Percentage of inhibition of the histamine-induced bronchospasm” value (rabbits [3]; [12]) was 3.97%. The “% inhibition of plantar oedema” value (rats [4]; [14]) was 11%, the inhibition at 1000 µg/mL (thrombocyte aggregation; [15]) was 4% and the inhibition at 1500 µg/mL (thrombocyte aggregation; [15]) was 12%. The inhibition at 2000 µg/mL (thrombocyte aggregation; [15]) was 24%, the inhibition at 4000 µg/mL (thrombocyte aggregation; [15]) was 32% and the “Minimum Inhibiting Concentration (MIC)” value (Staphylococcus aureus; Staphylococcus aureus) was “.infin”. For the same compound, the “Minimum Inhibiting Concentration (MIC)” value (Escherichia coli; Escherichia coli) was “.infin”.
With CC1=CC(=O)[C@@H]2C[C@H]1C2(C)C [Verbenone, verbenone] the LD50 ([6]; ip, female) was 232 mg/kg, the LD50 ([6]; ip, male) was 310 mg/kg and the LD50 ([6]; po, female) was 655 mg/kg. For the same compound, the LD50 ([6]; po, male) was 790 mg/kg, the Gleason classification (rabbits [7]; i.p.) was “Poor” and the Gleason classification (rabbits [7]; p.o.) was “Poor”. The activation at 125 µg/mL [2, 9] was 26.2%, the activation at 500 µg/mL [2, 9] was 61.2% and the activation at 2000 µg/mL [2, 9] was 71.4%. The “relaxation of the smooth tracheal muscles, intensity compared with Fraction 2 and sobrerol (in words)” value [2] was “significantly higher than that of the terpenes of the fraction 2 and also than that of sobrerol”, the “bronchodilating activity” value [2] was “pronounced bronchodilating action; also recorded: pronounced bronchodilating activity” and the “Percentage of inhibition of the histaminic spasm due to relaxation of the smooth tracheal muscles” value ([8]; 5.10^-3 M) was 96.8%. For the same compound, the inhibition at 1000 µM ([8]; Cavia porcellus, 10^-3 M, read-out: Percentage of inhibition of the histaminic spasm due to relaxation of the smooth tracheal muscles) was 29.2%, the “Percentage reduction of the Lung Resistance” value (from here on “Percentage reduction”) (dogs; 0.6 mgs/kg b.w.) was 7.175% and the “reduction of the lung resistances (in words)” value (dogs; 0.6 to 4.8 mgs/kg b.w.) was “pronounced reduction of the lung resistances”. The “Percentage reduction” value (dogs; 1.2 mgs/kg b.w.) was 10.85%, the “Percentage reduction” value (dogs; 2.4 mgs/kg b.w.) was 22.225% and the “Percentage reduction” value (dogs; 4.8 mgs/kg b.w.) was 30.6%. The “Percentage of inhibition of the histamine-induced bronchospasm” value (rabbits [3]; [10]) was 36.25%, the “Percentage of inhibition of the histamine-induced bronchospasm” value (rabbits [3]; [11]) was 46.27% and the “Percentage of inhibition of the histamine-induced bronchospasm” value (rabbits [3]; [12]) was 73.32%. For the same compound, the “inhibition of histamine-induced bronchospasm compared with Fraction 2 and sobrerol (in words)” value (rabbits [3]; [13]) was “statistically higher than that of the terpenes of the fraction 2 and also than that of sobrerol”, the “% inhibition of plantar oedema” value (rats [4]; [14]) was 29% and the “inhibition of carrageenin paw oedema compared with Fraction 2 and sobrerol (in words)” value (rats [4]; normal and suprarenalectomized rats, 30 mg/kg b.w. intraperitoneally) was “significantly improved over those of the fraction 2 and of sobrerol”. The “antiexudative activity compared with aspirin (in words)” value (rats [1]; 36 and 120 mg/kg b.w. intraperitoneally) was “intense antiexudative activity in the experimental, turpentine-induced pleuritis (Hurley, J. V. et al., J. Path., 91, 575,1966) to a degree which can be compared to that of aspirin”, the Exudate (rats [1]; 36 mgs/kg intraperitoneal) was 1.23 mls and the Inhibition (rats [1]; 36 mgs/kg intraperitoneal) was 37.6%. The Exudate (rats [1]; 120 mgs/kg intraperitoneal) was 0.97 mls, the Inhibition (rats [1]; 120 mgs/kg intraperitoneal) was 50.1% and the EC50 (red blood cells of rats; fiducial limits 95%: 518.0-760.11, read-out: effective concentration 50% (EC 50), protection from haemolysis) was 640 µg/mL (≈ 4.26 mM). The “inhibition of thrombocyte aggregation compared with Fraction 2 and sobrerol (in words)” value (thrombocyte aggregation) was “higher than that of the terpenes of the Fraction 2 and of sobrerol”, the inhibition at 160 µg/mL (thrombocyte aggregation) was 0% and the inhibition at 320 µg/mL (thrombocyte aggregation) was 6%. For the same compound, the inhibition at 640 µg/mL (thrombocyte aggregation) was 44%, the inhibition at 1280 µg/mL (thrombocyte aggregation) was 100% and the “antibacterial activity, grade (in words)” value (Staphylococcus aureus) was “poor antibacterial activity”. For the same compound, the “antibacterial activity compared with Fraction 2 and sobrerol (in words)” value (Staphylococcus aureus) was “as active as Fraction 2 and more active than sobrerol”, the MIC (Staphylococcus aureus; Staphylococcus aureus) was 800 µg/mL (≈ 5.33 mM) and the MIC (Escherichia coli; Escherichia coli) was 800 µg/mL (≈ 5.33 mM). The “antibacterial activity, grade (in words)” value (Escherichia coli) was “poor antibacterial activity”, the “tolerability on the basis of acute toxicity data” value (mice; mice and rabbits, i.p. and p.o.) was “well tolerated” and the Gleason classification (mice; i.p.) was “Poor”. The Gleason classification (mice; p.o.) was “Slight”, the LD50 (in vivo; ip, female) was 325 mg/kg and the LD50 (in vivo; ip, male) was 361 mg/kg. For the same compound, the LD50 (in vivo; po, female) was 1530 mg/kg and the LD50 (in vivo; po, male) was 1410 mg/kg.
